The text below walks through data of patent US11040018B2, “Formulation for inhibiting formation of 5-HT2B agonists and methods of using same” (ZOGENIX INTERNATIONAL LIMITED, priority 2016, dated 2021).

Values joined by “and” are separate entries in the source; they are usually repeats but may differ in a detail not shown here. Equal entries are not always repeated.

One data set concerns the target CYP1A2 (Homo sapiens, UniProt P05177). The following applies: cited from earlier work.
Another data set concerns the target CYP2C9 (Homo sapiens, UniProt P11712). As to conditions: cited from earlier work.
The target in another data set is CYP2C19 (Homo sapiens, UniProt P33261). The following applies: cited from earlier work.
CYP2C19, sequence (P33261 whole entry): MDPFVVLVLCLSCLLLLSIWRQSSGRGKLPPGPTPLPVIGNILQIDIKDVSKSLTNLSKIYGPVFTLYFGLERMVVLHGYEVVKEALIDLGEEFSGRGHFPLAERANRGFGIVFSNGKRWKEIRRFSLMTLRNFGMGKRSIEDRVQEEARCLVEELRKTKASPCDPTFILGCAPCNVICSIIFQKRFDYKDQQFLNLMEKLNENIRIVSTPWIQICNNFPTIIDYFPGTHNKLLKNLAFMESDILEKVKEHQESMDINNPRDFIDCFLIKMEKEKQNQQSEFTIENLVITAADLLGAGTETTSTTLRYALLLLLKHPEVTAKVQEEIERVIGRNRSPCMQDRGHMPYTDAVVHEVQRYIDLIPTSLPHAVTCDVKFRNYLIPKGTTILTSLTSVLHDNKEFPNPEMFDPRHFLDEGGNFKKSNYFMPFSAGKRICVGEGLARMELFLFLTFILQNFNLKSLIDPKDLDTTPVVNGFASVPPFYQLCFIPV
In data set [1] the target is CYP3A4 (Homo sapiens, UniProt P08684). The following applies: cited from earlier work.
CYP3A4 (Homo sapiens, UniProt P08684), sequence (P08684 whole entry): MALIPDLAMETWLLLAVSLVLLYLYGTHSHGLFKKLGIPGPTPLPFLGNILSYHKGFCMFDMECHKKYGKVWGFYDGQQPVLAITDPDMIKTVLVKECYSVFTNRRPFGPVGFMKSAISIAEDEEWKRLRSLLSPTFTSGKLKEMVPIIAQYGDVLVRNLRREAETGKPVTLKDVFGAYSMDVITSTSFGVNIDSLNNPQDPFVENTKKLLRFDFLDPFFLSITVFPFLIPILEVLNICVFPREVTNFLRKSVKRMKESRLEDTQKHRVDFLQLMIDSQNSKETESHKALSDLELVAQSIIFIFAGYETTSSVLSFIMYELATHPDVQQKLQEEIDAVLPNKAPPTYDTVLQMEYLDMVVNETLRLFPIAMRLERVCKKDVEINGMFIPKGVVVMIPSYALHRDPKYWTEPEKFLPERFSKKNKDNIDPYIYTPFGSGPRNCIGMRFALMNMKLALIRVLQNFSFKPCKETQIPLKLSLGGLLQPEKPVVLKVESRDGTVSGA
Data set [2] can be described thus: Drug-drug interaction clinical trial: fenfluramine co-administered with stiripentol, clobazam and valproate; plasma levels of fenfluramine and norfenfluramine. As to conditions: healthy volunteers; for Exposure impact: ratio of AUC0-72 for combination treatment to AUC0-72 for fenfluramine alone: single dose, fenfluramine 0.8 mg/kg with stiripentol 3,500 mg, clobazam 20 mg, valproate 25 mg/kg (≤1,500 mg), blood plasma, interim results. The procedure: The effects of co-administration of a three-drug regimen on fenfluramine metabolism and resultant plasma levels of fenfluramine and its metabolite norfenfluramine was assessed in a clinical trial using in healthy volunteers.
A randomized, open-label, single-dose, 3-way cross-over study was designed to examine the effects of co-administering fenfluramine with a three-drug cocktail consisting of stiripentol, clobazam, and valproate. Each patient was treated sequentially with three treatment regimens, each being administered individually, according to six different treatment sequences which were assigned randomly.
Subjects were recruited from an existing pool of volunteers or through direct advertising, Prospects who had participated in a study within three months prior of dosing were excluded from the pool of potential participants. A full medical history for the preceding 12-month period was obtained from each subject's primary care physician and evaluated. Patients were then assessed according to the inclusion and exclusion criteria shown below. Persons chosen as study participants underwent a screening visit prior to participation to reassess and confirm compliance with those criteria.
AUC0-72 values were calculated based on blood plasma levels of fenfluramine and norfenfluramine levels. Exposure impact is expressed as a ratio of AUC0-72 values determined for patients receiving the combination treatment to the AUC0-72 values determined for patients receiving fenfluramine alone.

The next data set has as its target 5-HT2B receptor (Homo sapiens, UniProt P41595). As to conditions: cited from earlier work.
The target in the next data set is CYP2D6 (Homo sapiens, UniProt P10635). As to conditions: cited from earlier work.
CYP2D6, sequence (P10635 whole entry): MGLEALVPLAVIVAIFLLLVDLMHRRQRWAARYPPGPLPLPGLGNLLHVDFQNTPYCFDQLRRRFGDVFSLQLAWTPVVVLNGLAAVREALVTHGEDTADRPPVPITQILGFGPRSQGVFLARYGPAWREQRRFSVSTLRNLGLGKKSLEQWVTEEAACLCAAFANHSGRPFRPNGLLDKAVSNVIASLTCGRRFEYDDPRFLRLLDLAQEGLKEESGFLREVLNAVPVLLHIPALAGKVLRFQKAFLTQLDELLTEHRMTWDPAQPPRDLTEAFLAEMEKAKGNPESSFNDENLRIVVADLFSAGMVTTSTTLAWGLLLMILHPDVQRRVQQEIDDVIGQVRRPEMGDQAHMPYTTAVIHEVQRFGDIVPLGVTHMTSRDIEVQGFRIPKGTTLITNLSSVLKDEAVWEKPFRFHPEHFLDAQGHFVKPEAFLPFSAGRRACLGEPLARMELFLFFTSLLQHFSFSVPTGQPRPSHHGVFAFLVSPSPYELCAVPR
Data set [3] deals with CYP3A4. As to conditions: cited from earlier work.
For a further data set, the target named is T1, CYP2B6 (Homo sapiens, UniProt P20813).
T1 sequence (P20813 1-491): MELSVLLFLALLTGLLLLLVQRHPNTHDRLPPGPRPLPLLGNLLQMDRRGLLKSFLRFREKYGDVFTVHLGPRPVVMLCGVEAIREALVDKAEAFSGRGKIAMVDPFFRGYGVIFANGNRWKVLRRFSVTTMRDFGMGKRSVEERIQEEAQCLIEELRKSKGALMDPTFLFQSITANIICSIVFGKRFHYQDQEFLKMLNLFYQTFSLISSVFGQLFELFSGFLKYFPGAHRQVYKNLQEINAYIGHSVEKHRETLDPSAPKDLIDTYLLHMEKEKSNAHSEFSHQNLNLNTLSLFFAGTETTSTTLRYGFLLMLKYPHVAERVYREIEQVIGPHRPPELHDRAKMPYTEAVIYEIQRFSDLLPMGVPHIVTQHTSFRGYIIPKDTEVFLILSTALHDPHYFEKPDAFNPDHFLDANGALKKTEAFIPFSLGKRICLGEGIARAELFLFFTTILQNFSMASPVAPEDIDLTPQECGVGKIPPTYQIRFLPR
As to conditions: cited from earlier work.

In another data set the target is T2, CYP2C8 (Homo sapiens, UniProt P10632).
T2 sequence (P10632 1-490): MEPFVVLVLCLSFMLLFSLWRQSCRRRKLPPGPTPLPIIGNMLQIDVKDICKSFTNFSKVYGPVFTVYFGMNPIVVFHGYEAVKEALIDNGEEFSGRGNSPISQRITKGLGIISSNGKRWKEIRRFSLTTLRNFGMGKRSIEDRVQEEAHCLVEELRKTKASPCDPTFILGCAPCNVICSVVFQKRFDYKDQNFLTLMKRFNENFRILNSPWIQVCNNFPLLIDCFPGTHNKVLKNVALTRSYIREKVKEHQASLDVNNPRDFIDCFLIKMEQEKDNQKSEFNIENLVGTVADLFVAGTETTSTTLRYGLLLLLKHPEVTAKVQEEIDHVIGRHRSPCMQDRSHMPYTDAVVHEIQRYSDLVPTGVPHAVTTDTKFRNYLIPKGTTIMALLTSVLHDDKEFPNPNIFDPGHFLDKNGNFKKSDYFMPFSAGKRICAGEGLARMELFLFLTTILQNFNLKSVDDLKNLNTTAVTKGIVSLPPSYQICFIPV
The following applies: cited from earlier work.

CYP2C9, sequence (P11712 whole entry): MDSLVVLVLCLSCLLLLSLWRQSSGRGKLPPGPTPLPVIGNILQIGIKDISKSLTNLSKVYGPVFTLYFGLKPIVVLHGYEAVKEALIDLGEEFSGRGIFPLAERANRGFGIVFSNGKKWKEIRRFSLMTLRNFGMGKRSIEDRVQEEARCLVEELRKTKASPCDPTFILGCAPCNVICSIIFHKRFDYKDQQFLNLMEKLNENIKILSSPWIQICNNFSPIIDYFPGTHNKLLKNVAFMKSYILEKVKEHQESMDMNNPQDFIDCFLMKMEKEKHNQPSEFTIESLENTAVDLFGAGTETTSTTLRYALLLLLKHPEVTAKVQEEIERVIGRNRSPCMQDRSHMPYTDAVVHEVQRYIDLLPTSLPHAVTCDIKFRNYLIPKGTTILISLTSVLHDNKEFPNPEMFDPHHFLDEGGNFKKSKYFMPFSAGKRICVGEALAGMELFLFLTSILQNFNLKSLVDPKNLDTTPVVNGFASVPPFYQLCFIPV
5-HT2B receptor, sequence (P41595 whole entry): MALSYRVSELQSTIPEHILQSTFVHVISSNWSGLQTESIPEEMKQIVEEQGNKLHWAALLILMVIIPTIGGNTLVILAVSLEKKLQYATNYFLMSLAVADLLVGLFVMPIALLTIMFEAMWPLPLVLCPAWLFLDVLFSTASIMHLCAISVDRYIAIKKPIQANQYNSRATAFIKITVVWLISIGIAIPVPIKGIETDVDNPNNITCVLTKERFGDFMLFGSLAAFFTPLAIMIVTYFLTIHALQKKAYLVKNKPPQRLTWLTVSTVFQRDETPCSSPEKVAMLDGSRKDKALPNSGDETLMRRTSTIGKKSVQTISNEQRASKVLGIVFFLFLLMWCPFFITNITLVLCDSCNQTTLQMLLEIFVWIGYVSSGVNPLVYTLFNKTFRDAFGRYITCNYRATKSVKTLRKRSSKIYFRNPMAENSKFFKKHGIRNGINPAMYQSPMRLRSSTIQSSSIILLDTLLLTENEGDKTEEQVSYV
CYP1A2, sequence (P05177 whole entry): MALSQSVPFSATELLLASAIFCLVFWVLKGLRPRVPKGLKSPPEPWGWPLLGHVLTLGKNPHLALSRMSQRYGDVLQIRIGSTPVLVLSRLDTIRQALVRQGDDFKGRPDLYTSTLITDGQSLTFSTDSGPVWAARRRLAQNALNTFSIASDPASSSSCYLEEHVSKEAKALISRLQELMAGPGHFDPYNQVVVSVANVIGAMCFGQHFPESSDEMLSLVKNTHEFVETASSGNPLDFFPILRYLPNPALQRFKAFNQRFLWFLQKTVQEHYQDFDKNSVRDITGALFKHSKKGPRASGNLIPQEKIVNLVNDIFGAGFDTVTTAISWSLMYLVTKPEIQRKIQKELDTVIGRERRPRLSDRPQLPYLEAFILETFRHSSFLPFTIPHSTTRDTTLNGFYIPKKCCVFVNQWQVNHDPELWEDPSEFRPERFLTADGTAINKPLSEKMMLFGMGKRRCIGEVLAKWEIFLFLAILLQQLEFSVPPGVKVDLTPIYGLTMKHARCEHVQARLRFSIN

Turning to `CC(C)(C)C(O)/C=C/c1ccc2c(c1)OCO2` (stereo not drawn) [stiripentol], the “Inhibition of CYP1A2” value on CYP1A2 is “strongly inhibits”. Besides, the “Inhibition of CYP2C9” value at CYP2C9 was “less strongly”. Also, the “Inhibition of CYP2C19” value at CYP2C19 is reported as “less strongly”. On CYP3A4 [1], the “Inhibition of CYP3A4” value is listed as “strongly inhibits”.
With `CCNC(C)Cc1cccc(C(F)(F)F)c1` (racemic) [fenfluramine, 3-trifluoromethyl-N-ethylamphetamine], the “Exposure impact: ratio of AUC0-72 for combination treatment to AUC0-72 for fenfluramine alone” value in data set [2] was 1.66 and 1.67. Further, the “Agonistic effect on 5-HT2B receptor” value on 5-HT2B receptor is “does not have significant agonistic effects”.
Consider `CN1C(=O)CC(=O)N(c2ccccc2)c2cc(Cl)ccc21` [clobazam], for which the “Inhibition of CYP2D6” value at CYP2D6 is reported as “strongly inhibits”. Further, the “Induction of CYP3A4” value in the data set with CYP3A4 [3] is “weak inducer”.
Take `C=C(C)[C@@H]1CCC(C)=C[C@H]1c1c(O)cc(CCCCC)cc1O` [cannabidiol]: on CYP1A2, the “Inhibition of CYP1A2” value is given as “potent inhibitor of CYP1A2 (time-dependent effect)”. The “Inhibition of CYP2B6” value on CYP2B6 is on record as “potent inhibitor”. Also, the “Inhibition of CYP2C8” value on CYP2C8 was “inhibitory effects”. Also, the “Inhibition of CYP2C9” value at CYP2C9 is “inhibitory effects”. Besides, the “Inhibition of CYP2C19” value at CYP2C19 was “inhibitory effects”. At CYP2D6, the “Inhibition of CYP2D6” value is listed as “inhibitory effects”. The “Inhibition of CYP3A4” value at CYP3A4 [1] is reported as “potent inhibitor”.
For `CC(N)Cc1cccc(C(F)(F)F)c1` (stereo not drawn) [norfenfluramine], the “Exposure impact: ratio of AUC0-72 for combination treatment to AUC0-72 for fenfluramine alone” value in data set [2] is recorded as 0.59. The “Reduction of patient exposure to norfenfluramine” value in data set [2] (fenfluramine co-administered with stiripentol, clobazam and valproate) is around 30%. Also, the “Agonistic effect on 5-HT2B receptor” value at 5-HT2B receptor is “particularly potent 5-HT2B agonist”.
